According to PubChem BioAssay (NCI):
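Protocol summary: plate cells (96-well), add compound at 5 concentrations, incubate 48 h, interpolate endpoints linearly. GI50 marks 50% less growth. TGI denotes the concentration required for complete inhibition of growth.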

Key:
Assay in all cases: NCI anticancer screen, dose series, 48 h
U251 CNS = tested on: U251 CNS
NCI-H226 lung = tested on: NCI-H226 lung
HOP-62 NSCLC = tested on: HOP-62 NSCLC
K-562 leukemia = tested on: K-562 leukemia
HCC-2998 colon = tested on: HCC-2998 colon
HT29 colon = tested on: HT29 colon
SK-MEL-5 melanoma = tested on: SK-MEL-5 melanoma
TK-10 renal = tested on: TK-10 renal
A498 renal = tested on: A498 renal
PC-3 prostate = tested on: PC-3 prostate

Compound	TGI (U251 CNS) [µM]	TGI (NCI-H226 lung) [µM]	TGI (HOP-62 NSCLC) [µM]	TGI (K-562 leukemia) [µM]	TGI (HCC-2998 colon) [µM]	TGI (HT29 colon) [µM]	TGI (SK-MEL-5 melanoma) [µM]	TGI (TK-10 renal) [µM]	TGI (A498 renal) [µM]	GI50 (U251 CNS) [µM]	GI50 (NCI-H226 lung) [µM]	GI50 (HOP-62 NSCLC) [µM]	GI50 (K-562 leukemia) [µM]	GI50 (HT29 colon) [µM]	GI50 (SK-MEL-5 melanoma) [µM]	GI50 (TK-10 renal) [µM]	GI50 (A498 renal) [µM]	GI50 (PC-3 prostate) [µM]	TGI (PC-3 prostate) [µM]	GI50 (HCC-2998 colon) [µM]
COc1ccc2c(c1)c1c3n2CCNN=C3CCC1	> 100	> 100	> 100	> 100	> 100	> 100	> 100	> 86.9	> 100											
O=C(Cc1ccccc1)NN1C(=O)/C(=C\c2ccccc2O)SC1=Nc1ccccc1	> 100	> 100	> 100		> 100	> 100	> 100	> 100	> 100											
O=C(/C=C/C1C(=O)NC(=O)NC1=O)CC(=O)C(=O)Nc1cc(Cl)c(Cl)cc1Cl	> 100	> 100	> 100	> 100	> 100	> 100	> 100	> 100	> 100											
O=c1[nH]cc(C(F)(C(F)(F)F)C(F)(F)F)c(=O)[nH]1	> 100	> 100	> 100	> 100		> 100	> 100	> 100	> 100											
CC(C)[Si](OCC1CC(C#N)OC(C)(C)O1)(C(C)C)C(C)C (stereo not drawn)	30	35	44.3	37.9	38.4	37.5	33	> 100	19.1											
CC(=O)Nc1ccc(-c2nnc(SCC(=O)Nc3ccc(Cl)cc3)o2)cc1	12.9	37	39.7	> 100	37.5	23.2	19.7	32.4	31.7											
NS(=O)(=O)c1ccc(NC(=O)c2cccc(NC3=C(Cl)C(=O)N(Cc4ccccc4)C3=O)c2)cc1	19.6	46.2	> 100	6.09		> 100	24.1	31.4	23.7	5.18	8.33	31.5	2.27	33.3	7.87	15.2	9.25	6.57	29	
CC1=C(N2CC2)C(=O)c2ccccc2C1=O	10.3	6.21	3.21	3.5		3.07	0.405	6.48											3.87	
Cc1ccc(S(=NS(=O)(=O)c2ccc(C)cc2)c2ccc(C)cc2)cc1	> 100	> 100	> 100	> 100		> 100		> 100											> 100	
CC1=CC(=O)NP(=O)(C23CC4CC(CC(C4)C2)C3)N1 (stereo not drawn)	> 100	> 100	> 100	> 100		> 100	> 100	> 100	> 100											
H-QIYKKYRTWYRKAWKVLGKV-NH2	> 100	58.7	> 100	> 100	63.4	> 100	8.7	29.8		12	12.4	5.15	3.21	20.8	2.84	6.35		3.82	20	17.5
CCN(CC)Cc1cc(Nc2c3ccccc3nc3cc(Cl)ccc23)ccc1O	2.89	3.23	3.16	39		1.75	3.16	3.23	3.29	1.39	1.66	1.73	1.69	0.487	1.75	1.64	1.73	1.59	3.26	
COc1ccc2c([nH]c3c(O)c(-c4c(C)cc5c([nH]c6c(CC=C(C)C)c(OC)ccc65)c4O)c(C)cc32)c1CC=C(C)C	> 100		> 100	> 100	> 100	> 100	> 100	> 100	> 100											
C/C(=N\NS(=O)(=O)c1ccc([N+](=O)[O-])cc1)c1ccc[n+]([O-])n1	5.06	3.91	4.7	> 65.4	22.3	3.98	5.97	25.9	4											
[CH3][Sn]1([CH3])[O]CC(COc2cc(Cl)c(Cl)cc2Cl)[O]1 (stereo not drawn)	> 100	> 100	> 100	> 100	> 100	> 100	> 100	> 100	> 100	> 100	30.7	> 100	> 100	> 100	49.8	> 100	70			62.5
C#CCOCn1cnc2ncnc(N)c21	> 100	> 100	> 100	> 100	> 100	> 100	> 100	> 100	> 100											
O=C1C=Cc2ncccc2C1=O	> 57.8	> 58.7	> 82.9	26.4	> 61.6	43.4	28.2	> 58.8	> 91.5											
Cc1ccc(/C=N/NS(=O)(=O)c2ccccc2)c(C)c1	> 100	> 100	> 100	> 100	> 100	> 100	> 100	> 100	> 100											
CC(=O)OC(=O)O/C=C\CCl	> 100	> 100	> 100	> 100	> 100		> 100	> 100	> 100											
Cn1nc(-c2ccccc2)c(C(=O)/C=C/c2ccc(Cl)cc2)c(N2CCCC2)c1=O	15.5		6.93	9.06		15.3	18.6	26.6												
C/C(CC(=O)Nc1cccc([N+](=O)[O-])c1)=N\NC(=O)CC#N	> 100	> 100	> 100	> 100	> 100	> 100	> 100	> 100												
